According to the supplement of paper PMC8976852:
± gives the standard deviation of the averaged measurements.

Key:
Assay in all cases: activity (1 - area under the dose-response curve within the screened range) (fraction); higher = more sensitive
Conditions in all cases: treatment time: 72 h
HCM-SANG-0266-C20 = test system: HCM-SANG-0266-C20 (colorectal cancer organoid)
Method: (§1)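 Patient-derived cancer organoids (colorectal and oesophageal, HCM-SANG models) were grown for up to 6 months in 5% or 80% ECM (BME-2), then seeded in 384-well plates on an ECM layer and treated with 72 compounds for 3 days. Each compound used a 7-point half-log dilution series spanning a 1000-fold range, in technical triplicate and biological duplicate. Dose-response curves were fitted with a non-linear mixed effects model; fits with RMSE > 0.3 were removed, and activity = 1 - AUC within the screened dose range (0 = no activity, 1 = maximum).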

HCM-SANG-0532-C20 = test system: HCM-SANG-0532-C20 (colorectal cancer organoid)
Method: as §1

HCM-SANG-0291-C15 = test system: HCM-SANG-0291-C15 (oesophageal cancer organoid)
Method: as §1

HCM-SANG-0270-C20 = test system: HCM-SANG-0270-C20 (colorectal cancer organoid)
Method: as §1

[1] = ECM percentage in culture prior to screening 5 %
[2] = ECM percentage in culture prior to screening 80 %

| Compound | activity (HCM-SANG-0266-C20; [1]) | activity (HCM-SANG-0266-C20; [2]) | activity (HCM-SANG-0532-C20; [1]) | activity (HCM-SANG-0532-C20; [2]) | activity (HCM-SANG-0291-C15; [1]) | activity (HCM-SANG-0291-C15; [2]) | activity (HCM-SANG-0270-C20; [1]) | activity (HCM-SANG-0270-C20; [2]) |
| --- | --- | --- | --- | --- | --- | --- | --- | --- |
| CN1CCN(CCOc2cc(OC3CCOCC3)c3c(Nc4c(Cl)ccc5c4OCO5)ncnc3c2)CC1 [Saracatinib] | 0.156 ± 0.038 | 0.126 ± 0.041 | 0.155 ± 0.067 | 0.141 ± 0.028 | 0.159 ± 0.035 | 0.185 ± 0.024 | 0.121 ± 0.071 | 0.0918 ± 0.067 |
| COc1cc(CCc2cc(NC(=O)c3ccc(N4CC(C)NC(C)C4)cc3)n[nH]2)cc(OC)c1 (stereo not drawn) [AZD4547] | 0.0268 ± 0.015 | 0.0233 ± 0.0077 | 0.0579 ± 0.039 | 0.0368 ± 0.013 | 0.0191 ± 0.001 | 0.0289 ± 0.014 | 0.0358 ± 0.023 | 0.0323 ± 0.017 |
| CC(=O)c1c(C)c2cnc(Nc3ccc(N4CCNCC4)cn3)nc2n(C2CCCC2)c1=O [Palbociclib] | 0.0791 ± 0.052 | 0.0779 ± 0.05 | 0.0593 ± 0.019 | 0.102 ± 0.034 | 0.0779 ± 0.033 | 0.0409 ± 0.013 | 0.0934 ± 0.03 | 0.0559 ± 0.031 |
| CC(=O)O[C@H]1C(=O)[C@@]2(C)[C@H]([C@H](OC(=O)c3ccccc3)[C@]3(O)C[C@H](OC(=O)[C@H](O)[C@@H](NC(=O)c4ccccc4)c4ccccc4)C(C)=C1C3(C)C)[C@]1(OC(C)=O)CO[C@@H]1C[C@@H]2O [Paclitaxel] | 0.331 ± 0.06 | 0.317 ± 0.067 | 0.138 ± 0.058 | 0.256 ± 0.031 | 0.246 ± 0.044 | 0.27 ± 0.066 | 0.223 ± 0.051 | 0.218 ± 0.084 |
| Cn1cc(C2=C(c3ccc(Cl)cc3Cl)C(=O)NC2=O)c2ccccc21 | 0.0916 ± 0.037 | 0.0697 ± 0.056 | 0.0778 ± 0.033 | 0.0951 ± 0.05 | 0.0549 ± 0.019 | 0.0522 ± 0.022 | 0.0629 ± 0.02 | 0.0482 ± 0.021 |
| Cc1cn(-c2cc(NC(=O)c3ccc(C)c(Nc4nccc(-c5cccnc5)n4)c3)cc(C(F)(F)F)c2)cn1 [Nilotinib] | 0.0558 ± 0.029 | 0.0445 ± 0.025 | 0.111 ± 0.036 | 0.104 ± 0.021 | 0.0659 ± 0.035 | 0.0726 ± 0.03 | 0.0302 ± 0.0098 | 0.0451 ± 0.018 |
| O=C(Nc1ccc2[nH]nc(-c3ccncc3)c2c1)[C@@H]1CCN(CC(=O)N2CCN(c3ccc(-c4ncccn4)cc3)CC2)C1 | 0.388 ± 0.086 | 0.155 ± 0.12 | 0.201 ± 0.13 | 0.272 ± 0.056 | 0.236 ± 0.027 | 0.224 ± 0.055 | 0.159 ± 0.078 | 0.0818 ± 0.065 |
| Cc1nc(-c2cn3c(n2)-c2ccc(-c4cnn(C(C)(C)C(N)=O)c4)cc2OCC3)n(C(C)C)n1 [Taselisib] | 0.413 ± 0.13 | 0.263 ± 0.14 | 0.158 ± 0.12 | 0.249 ± 0.059 | 0.0465 ± 0.018 | 0.0601 ± 0.017 | 0.0832 ± 0.048 | 0.0597 ± 0.055 |
| CCc1c2c(nc3ccc(OC(=O)N4CCC(N5CCCCC5)CC4)cc13)-c1cc3c(c(=O)n1C2)COC(=O)[C@]3(O)CC [Irinotecan] | 0.0899 ± 0.035 | 0.0683 ± 0.022 | 0.1 ± 0.035 | 0.0793 ± 0.037 | 0.233 ± 0.019 | 0.18 ± 0.015 | 0.0887 ± 0.063 | 0.079 ± 0.039 |
| CN(C)CCCOc1ccc(-c2ccc3ncc4c(c3c2)n(C2CCOCC2)c(=O)n4C)cn1 [AZD0156] | 0.0443 ± 0.024 | 0.0475 ± 0.024 | 0.0433 ± 0.022 | 0.0427 ± 0.017 | 0.0259 ± 0.013 | 0.0316 ± 0.022 | 0.0254 ± 0.013 | 0.0244 ± 0.0078 |
| CC(C)(C)c1nc(-c2cccc(NS(=O)(=O)c3c(F)cccc3F)c2F)c(-c2ccnc(N)n2)s1 [Dabrafenib] | 0.138 ± 0.084 | 0.0841 ± 0.044 | 0.0306 ± 0.018 | 0.0604 ± 0.032 | 0.0243 ± 0.0054 | 0.0207 ± 0.0019 | 0.035 ± 0.012 | 0.0243 ± 0.0073 |
| Cc1cccc(-c2[nH]c(C(C)(C)C)nc2-c2ccc3c(c2)OCO3)n1 | 0.0398 ± 0.022 | 0.0534 ± 0.016 | 0.0437 ± 0.015 | 0.0531 ± 0.017 | 0.0256 ± 0.0074 | 0.0336 ± 0.018 | 0.0741 ± 0.023 | 0.0613 ± 0.046 |
| C[C@@H]1COCCN1c1cc(C2([S@](C)(=N)=O)CC2)nc(-c2cc[nH]c3nccc2-3)n1 [AZD6738] | 0.185 ± 0.037 | 0.178 ± 0.033 | 0.116 ± 0.065 | 0.108 ± 0.026 | 0.199 ± 0.027 | 0.211 ± 0.037 | 0.09 ± 0.039 | 0.0864 ± 0.052 |
| Cc1cc([C@@H](C)Nc2ccccc2C(=O)O)c2nc(N3CCOCC3)cc(=O)n2c1 [AZD6482] | 0.042 ± 0.03 | 0.0421 ± 0.017 | 0.0367 ± 0.021 | 0.0291 ± 0.011 | 0.0199 ± 0.0028 | 0.0269 ± 0.0093 | 0.0274 ± 0.021 | 0.0245 ± 0.008 |
| CC(C)C[C@H](NC(=O)[C@H](Cc1ccccc1)NC(=O)c1cnccn1)B(O)O [Bortezomib] | 0.201 ± 0.023 | 0.228 ± 0.015 | 0.201 ± 0.028 | 0.212 ± 0.031 | 0.208 ± 0.027 | 0.234 ± 0.034 | 0.16 ± 0.023 | 0.167 ± 0.03 |
| N.N.[Cl][Pt][Cl] [Cisplatin] | 0.0675 ± 0.021 | 0.08 ± 0.081 | 0.0676 ± 0.035 | 0.0959 ± 0.02 | 0.132 ± 0.023 | 0.151 ± 0.025 | 0.0701 ± 0.024 | 0.0677 ± 0.021 |
| Cn1ncc(Cl)c1-c1cc(C(=O)N[C@H](CN)Cc2ccc(F)c(F)c2)oc1Cl [Uprosertib] | 0.218 ± 0.089 | 0.183 ± 0.08 | 0.177 ± 0.14 | 0.159 ± 0.027 | 0.0195 ± 0.0032 | 0.0257 ± 0.018 | 0.0769 ± 0.057 | 0.0584 ± 0.038 |
| O=c1cc(N2CCOCC2)oc2c(-c3cccc4c3sc3ccccc34)cccc12 [NU7441] | 0.104 ± 0.032 | 0.063 ± 0.018 | 0.124 ± 0.045 | 0.119 ± 0.022 | 0.0932 ± 0.037 | 0.0809 ± 0.029 | 0.0446 ± 0.03 | 0.0686 ± 0.032 |
| CCN(CC)CCCCNc1ncc2cc(-c3cc(OC)cc(OC)c3)c(NC(=O)NC(C)(C)C)nc2n1 | 0.0628 ± 0.031 | 0.0486 ± 0.023 | 0.0936 ± 0.015 | 0.0708 ± 0.015 | 0.0598 ± 0.031 | 0.0496 ± 0.0089 | 0.0417 ± 0.029 | 0.0362 ± 0.015 |
| Cn1nnc2c(C(N)=O)ncn2c1=O [Temozolomide] | 0.0575 ± 0.021 | 0.0651 ± 0.031 | 0.0253 ± 0.0078 | 0.024 ± 0.0046 | 0.02 ± 0.0034 | 0.0234 ± 0.0089 | 0.028 ± 0.013 | 0.0261 ± 0.0071 |
| CNC(=O)c1cc(Oc2ccc(NC(=O)Nc3ccc(Cl)c(C(F)(F)F)c3)cc2)ccn1 [Sorafenib] | 0.122 ± 0.014 | 0.106 ± 0.013 | 0.0823 ± 0.0072 | 0.123 ± 0.033 | 0.0375 ± 0.016 | 0.0266 ± 0.009 | 0.0957 ± 0.011 | 0.102 ± 0.068 |
